The values that follow come from PMC12233266, “Loss of serine/threonine protein phosphatase 6 severely impairs sexual stage development in malaria parasite Plasmodium berghei” (PLOS Pathogens, 2025).

The target in this experiment is T1, Ser/Thr protein phosphatase 6 (PbPP6) (Plasmodium berghei, UniProt A0A509AFY8).
T1 construct: gene PBANKA_0412100; full-length PbPP6 (308 aa), C-terminal His tag, expressed in Pichia GS115 (rPbPP6)
T1 sequence (A0A509AFY8 1-308): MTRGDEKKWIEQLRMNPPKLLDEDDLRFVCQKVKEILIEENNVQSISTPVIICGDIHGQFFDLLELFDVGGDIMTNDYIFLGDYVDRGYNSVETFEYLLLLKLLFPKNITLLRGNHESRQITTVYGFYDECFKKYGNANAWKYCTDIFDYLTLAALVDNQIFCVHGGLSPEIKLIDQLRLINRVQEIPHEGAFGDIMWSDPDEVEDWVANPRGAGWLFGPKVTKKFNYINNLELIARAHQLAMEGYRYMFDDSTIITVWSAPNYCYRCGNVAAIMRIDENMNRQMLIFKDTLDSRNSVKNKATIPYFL
In words: ProFluor Ser/Thr PPase fluorescence assay (R110 substrate) with purified recombinant enzyme, dose-response. Format: biochemical.

Molecules are shown by their SMILES. pIC50: −log10 of the molar value.

For `C=C1[C@@H](O)[C@@H]2O[C@]3(CC[C@H](/C=C/[C@@H](C)[C@@H]4CC(C)=C[C@@]5(O[C@H](C[C@@](C)(O)C(=O)O)CC[C@H]5O)O4)O3)CC[C@H]2O[C@@H]1[C@@H](O)C[C@H](C)[C@H]1O[C@@]2(CCCCO2)CC[C@H]1C` [OKA, okadaic acid], the negative logarithm of the IC50 (pIC50) was 9.07.
